Laboratory results: patent publication US9283277B2, “Methods and compositions for the treatment of obesity” (Children's Medical Center Corporation, priority 2008, dated 2016)

Legend:
Type in all cases: in vivo
ob/ob mice = assay: PBA pretreatment and leptin administration in ob/ob mice; details: for initial body weight: vehicle or PBA pretreated
Protocol: (§1) Nine-week old lean wt and ob/ob mice were orally treated with either PBA (1 g/kg/day) or vehicle (VEH) for 26 days and PERK (Thr980) phosphorylation is examined in the hypothalamus extracts with direct immunoblotting. (B) Ten week-old wt lean and ob/ob mice were intraperitoneally injected with leptin (0.1 mg/kg) after six-hour starvation. Hypothalami were removed 30 minutes after the injections, and pStat3^Tyr705 and total Stat3 levels were examined. (C) Nine-week old lean wt and ob/ob mice were orally treated with PBA (1 g/kg/day) for 10 days. Following the pretreatment period, leptin-deficient ob/ob mice were either administered with VEH or with different doses of leptin through the intraperitoneal route. The effect of VEH or PBA administration on (C) bodyweight (g), (D) percent decrease in bodyweight and (E) 24-hour food intake (n=3 for VEH and n=4 PBA-treated group). Effect of 5 mg/kg/day leptin administration on (F) bodyweight, (G) percent decrease in bodyweight and (H) 24-hour food intake in VEH- or PBA-treated ob/ob mice (n=3 for VEH and n=4 PBA-treated group). Analysis of the same parameters (body weight, percent decrease in bodyweight and 24-hour food intake) in (I, J, K) 1 mg/kg/day and (L, M, N) 0.1 mg/kg/day leptin-treated mice (n=3 for VEH and n=4 PBA-treated group). Data presented as means±SEM (*p<0.05, **p<0.01, ***p<0.001).
To test whether reduction of ER stress will increase leptin sensitivity of the ob/ob mice, we orally administered PBA or vehicle for 10 days as a pretreatment. Following this period, daily leptin injections (IP) were given at doses ranging from 0.01 mg/kg/day to 5 mg/kg/day. […]

[1] = test system: HFD-fed obese C57BL/6 wt mice; assay: TUDCA and leptin in HFD-induced obesity model
Protocol: (a) Hypothalamic PERK phosphorylation (Thr980) after 21 days of vehicle or TUDCA (150 mg/kg/day) treatment. Following a five-day pretreatment with TUDCA (150 mg/kg/day) or vehicle, nine-ten week old ob/ob mice were treated either with leptin (1 mg/kg/day) or vehicle. (b) Body weight (g), (c) % decrease in body weight, (d) daily food intake of the ob/ob mice during 18 days of treatment period with the indicated regimens. (e) Blood glucose (mg/dl) levels at the 18th day of treatment. Metabolic cage studies were performed; (f) CO2 production (ml/kg/hr), (g) O2 consumption (ml/kg/hr), (h) Respiratory exchange ratio (VCO2/VO2), (i) X-axis ambulatory activity, (j) Heat generation (kcal/hr). Dexa scan analysis of (k) total fat amount (g), (l) fat % and (m) lean body mass (g). C57BL/6 male wt mice were kept on HFD feeding for 32 weeks and following a five day acclimation period were pretreated with TUDCA (150 mg/kg/day) for five days. At the end of pretreatment period intraperitoneal vehicle and leptin (1 mg/kg/day) treatments were started. (n) Body weight (g), (o) % decrease in bodyweight of the HFD-fed mice during the 16-day treatment. (n=6 for VEH, n=7 for Lep, n=7 for TUD, n=8 for TUD+Lep group). Error bars are ±S.E.M., P values are determined by Student's t-test. (*p<0.05, **p<0.01, ***p<0.001)
We next tested the efficacy of TUDCA as a leptin sensitizer in the HFD-induced obesity model. In this experiment we used 35 weeks old and C57BL/6 wt mice, which were kept on HFD-feeding for 32 weeks. We divided the mice into two groups for TUDCA and TUDCA-leptin co-treatment. Body weight of the mice in this cohort was between 35-52 g. We specifically chose the mice with the highest bodyweight for TUDCA and leptin co-treatment group to investigate whether leptin will become effective in these severely obese mice when administered along with the TUDCA. The initial body weight of the TUDCA group was 38.33±1.16 (g) and TUDCA+leptin group was 48.46±1.82 (g) (FIG. 5n). Following an initial five days acclimation period mice were treated with TUDCA (150 mg/kg/day) for […], and subsequently either vehicle or […] treatment was started. […] Following the acclimation, TUDCA pretreatment was started and following the five-day pretreatment, vehicle and leptin (1 mg/kg/day) administration were initiated. TUDCA alone led to a significant decrease in bodyweight by reducing the initial weight from 36.16±0.99 (g) to 32.61±0.65 during the 16 days of treatment period (FIG. 5n). This reduction corresponds to an 8.60% decrease in bodyweight (FIG. 5o). […] Indeed, in our experience TUDCA acts as a much more powerful chemical chaperone when compared to PBA, as doses of TUDCA necessary for reducing ER stress in cellular systems^25 or as a leptin-sensitizing agent is much lower than PBA. […]

[2] = test system: Stat3 Tyr705 phosphorylation; assay: Leptin-stimulated Stat3 Tyr705 phosphorylation in hypothalamus of wt lean and ob/ob mice; details: leptin 0.1 mg/kg IP, six hour fasting, 30 minutes
Protocol: as §1, with “***p<0.001). […]” for “***p<0.001).”

[3] = oral PBA 1 g/kg/day alone vs vehicle
[4] = mice on HFD 32 weeks, TUDCA 150 mg/kg/day with vehicle or leptin 1 mg/kg/day, 16 days
[5] = leptin 1 mg/kg/day IP, vehicle or PBA (1 g/kg/day) pretreated
[6] = leptin 5 mg/kg/day IP, 16 days, vehicle or PBA (1 g/kg/day) pretreated

## O=C(O)CCCc1ccccc1 [PBA, 4-phenyl butyric acid]
ob/ob mice; PBA + 0.1 mg/kg/day leptin gives weight loss equivalent to 1 mg/kg/day leptin alone
  leptin sensitization: ten-fold
ob/ob mice; [3]
  body weight: did not affect
  food consumption: did not affect

## C[C@H](CCC(=O)NCCS(=O)(=O)O)[C@H]1CC[C@H]2[C@@H]3[C@@H](O)C[C@@H]4C[C@H](O)CC[C@]4(C)[C@H]3CC[C@]12C [TUDCA, tauroursodeoxycholic acid]
[1]; C57BL/6 wt mice on HFD 32 weeks
  initial body weight of the group (before acclimation): 38.33 ± 1.16 g
[1]; [4]
  body weight after treatment: 32.61 ± 0.65 g
  decrease in bodyweight: 8.60%
[1]; mice on HFD 32 weeks, after acclimation
  initial weight at start of treatment period: 36.16 ± 0.99 g

## leptin: adipocyte-derived hormone that suppresses appetite
[2]; ob/ob mice
  Stat3 Tyr705 phosphorylation in the hypothalamus: completely absent
[2]; wt lean mice
  Stat3 Tyr705 phosphorylation in the hypothalamus: responded well
ob/ob mice; before leptin 1 mg/kg/day
  initial body weight: 57.10 ± 0.58 g
ob/ob mice; before leptin 5 mg/kg/day
  initial body weight: 56 ± 1.16 g
ob/ob mice; leptin 0.1 mg/kg/day IP alone (vehicle pretreated)
  effect on body weight: did not significantly reduce
ob/ob mice; [5]
  body weight after treatment: 46.61 ± 0.52 g
  decrease in bodyweight: 17.73%
ob/ob mice; leptin 5 mg/kg/day IP after 10 days vehicle or PBA (1 g/kg/day) pretreatment
  food intake: significantly inhibited
ob/ob mice; [6]
  body weight after treatment: 41.13 ± 2.35 g
  decrease in bodyweight from the initial weight: 27.33±2.65%
